Reference: article PMC8398451, “Molecular Engineering of Curcumin, an Active Constituent of Curcuma longa L. (Turmeric) of the Family Zingiberaceae with Improved Antiproliferative Activity” (Plants, 2021)
pIC50: −log10 of the molar value.

Experiments:
MALME-3M = assay: NCI antiproliferative SRB assay, Melanoma panel; format: cell-based, Human; conditions: for %GI / GP (growth percent): one dose 10 µM
LOX IMVI = assay: NCI antiproliferative SRB assay, Melanoma panel; format: cell-based, Human; conditions: for %GI / GP (growth percent): one dose 10 µM
NCI-H460 = assay: NCI antiproliferative SRB assay, Non-Small Cell Lung Cancer panel; format: cell-based, Human; conditions: for %GI / GP (growth percent): one dose 10 µM
EKVX = assay: as above; format: cell-based, Human; conditions: for %GI / GP (growth percent): one dose 10 µM
TK-10 = assay: NCI antiproliferative SRB assay, Renal Cancer panel; format: cell-based, Human; conditions: for %GI / GP (growth percent): one dose 10 µM
OVCAR-8 = assay: NCI antiproliferative SRB assay, Ovarian Cancer panel; format: cell-based, Human; conditions: for %GI / GP (growth percent): one dose 10 µM
SW-620 = assay: NCI antiproliferative SRB assay, Colon Cancer panel; format: cell-based, Human; conditions: for %GI / GP (growth percent): one dose 10 µM
OVCAR-4 = assay: NCI antiproliferative SRB assay, Ovarian Cancer panel; format: cell-based, Human; conditions: for %GI / GP (growth percent): one dose 10 µM
SF-295 = assay: NCI antiproliferative SRB assay, CNS Cancer panel; format: cell-based, Human; conditions: for %GI / GP (growth percent): one dose 10 µM
[1] = system: Non-Small Cell Lung Cancer cell line panel; assay: NCI antiproliferative assay, panel summary; format: cell-based, Human; conditions: for Mean % GI: 10 µM
UACC-257 = assay: NCI antiproliferative SRB assay, Melanoma panel; format: cell-based, Human; conditions: for %GI / GP (growth percent): one dose 10 µM
COLO 205 = assay: NCI antiproliferative SRB assay, Colon Cancer panel; format: cell-based, Human; conditions: for %GI / GP (growth percent): one dose 10 µM
SK-MEL-28 = assay: NCI antiproliferative SRB assay, Melanoma panel; format: cell-based, Human; conditions: for %GI / GP (growth percent): one dose 10 µM
[2] = system: Renal Cancer cell line panel; assay: NCI antiproliferative assay, panel summary; format: cell-based, Human; conditions: for Mean % GI: 10 µM
OVCAR-3 = assay: NCI antiproliferative SRB assay, Ovarian Cancer panel; format: cell-based, Human; conditions: for %GI / GP (growth percent): one dose 10 µM
HL-60(TB) = assay: cells; format: cell-based; conditions: for %GI / GP (growth percent): one dose 10 µM
NCI/ADR-RES = assay: NCI antiproliferative SRB assay, Ovarian Cancer panel; format: cell-based, Human; conditions: for %GI / GP (growth percent): one dose 10 µM
SK-MEL-5 = assay: NCI antiproliferative SRB assay, Melanoma panel; format: cell-based, Human; conditions: for %GI / GP (growth percent): one dose 10 µM
NCI-H522 = assay: NCI antiproliferative SRB assay, Non-Small Cell Lung Cancer panel; format: cell-based, Human; conditions: for %GI / GP (growth percent): one dose 10 µM
SNB-75 = assay: NCI antiproliferative SRB assay, CNS Cancer panel; format: cell-based, Human; conditions: for %GI / GP (growth percent): one dose 10 µM
786–0 = assay: NCI antiproliferative SRB assay, Renal Cancer panel; format: cell-based, Human; conditions: for %GI / GP (growth percent): one dose 10 µM
K-562 = assay: NCI antiproliferative SRB assay, Leukemia panel; format: cell-based, Human; conditions: for %GI / GP (growth percent): one dose 10 µM
HOP-92 = assay: NCI antiproliferative SRB assay, Non-Small Cell Lung Cancer panel; format: cell-based
EGFR = molecular target: T1, EGFR (Homo sapiens, UniProt P00533); assay: Spectrophotometric assay for EGFR tyrosine kinase inhibition in A431 cells; format: cell-based; conditions: absorbance at 540 nm
T1 construct: tested for anti-EGFR activity in human A431 cells, which express high levels of EGFR protein; endogenous in cells; host or cells: human A431 cells

[3] = Homo sapiens, 5-dose 0.01-100 µM
[4] = Homo sapiens, 5-dose 0.01-100 µM, read-out: LC50 (the source's name)

T1 sequence (P00533 25-1210): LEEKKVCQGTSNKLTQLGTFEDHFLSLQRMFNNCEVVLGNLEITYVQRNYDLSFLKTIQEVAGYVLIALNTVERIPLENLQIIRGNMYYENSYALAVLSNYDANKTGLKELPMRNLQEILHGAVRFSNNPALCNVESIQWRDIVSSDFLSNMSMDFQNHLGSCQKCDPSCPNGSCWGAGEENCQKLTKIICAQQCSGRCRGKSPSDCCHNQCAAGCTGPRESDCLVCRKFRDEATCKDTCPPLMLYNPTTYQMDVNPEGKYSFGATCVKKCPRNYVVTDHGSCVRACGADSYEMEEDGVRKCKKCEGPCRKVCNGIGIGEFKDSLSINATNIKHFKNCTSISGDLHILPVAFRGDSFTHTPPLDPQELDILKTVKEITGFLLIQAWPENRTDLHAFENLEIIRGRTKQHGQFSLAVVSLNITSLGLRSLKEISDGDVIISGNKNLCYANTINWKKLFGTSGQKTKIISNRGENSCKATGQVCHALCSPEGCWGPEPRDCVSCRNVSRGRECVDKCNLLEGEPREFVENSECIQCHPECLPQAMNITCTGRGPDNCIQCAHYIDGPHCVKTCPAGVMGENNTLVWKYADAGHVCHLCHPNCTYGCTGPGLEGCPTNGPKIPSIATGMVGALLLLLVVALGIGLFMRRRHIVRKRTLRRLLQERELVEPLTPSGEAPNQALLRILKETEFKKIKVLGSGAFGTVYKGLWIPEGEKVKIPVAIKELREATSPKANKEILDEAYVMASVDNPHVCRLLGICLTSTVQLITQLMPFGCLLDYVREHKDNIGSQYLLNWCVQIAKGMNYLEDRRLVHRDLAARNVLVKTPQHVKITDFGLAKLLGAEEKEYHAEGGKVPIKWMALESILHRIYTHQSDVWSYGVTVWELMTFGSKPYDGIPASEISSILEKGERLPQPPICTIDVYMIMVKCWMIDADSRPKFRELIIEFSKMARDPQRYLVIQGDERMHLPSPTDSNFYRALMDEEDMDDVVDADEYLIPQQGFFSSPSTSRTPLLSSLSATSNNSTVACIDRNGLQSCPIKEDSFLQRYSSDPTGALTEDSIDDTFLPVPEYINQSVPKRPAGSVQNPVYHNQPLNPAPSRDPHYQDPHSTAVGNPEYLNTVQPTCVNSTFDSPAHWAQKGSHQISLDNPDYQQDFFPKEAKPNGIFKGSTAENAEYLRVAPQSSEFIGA

COc1ccc(/C=C/c2cc(/C=C/c3ccc(OC)c(O)c3)n(-c3cccc(Cl)c3)c(=S)n2)cc1O [3a]
%GI (MALME-3M): 10.54%
GP (growth percent) (MALME-3M): 89.46
%GI (LOX IMVI): 21.36%
GP (growth percent) (LOX IMVI): 78.64
%GI (NCI-H460): 10.49%
GP (growth percent) (NCI-H460): 89.51
%GI (EKVX): 14.19%
GP (growth percent) (EKVX): 85.81
%GI (TK-10): −12.60%
GP (growth percent) (TK-10): 112.60
%GI (OVCAR-8): 28.57%
GP (growth percent) (OVCAR-8): 71.43
%GI (SW-620): 10.52%
GP (growth percent) (SW-620): 89.48
%GI (OVCAR-4): 17.45%
GP (growth percent) (OVCAR-4): 82.55
%GI (SF-295): −9.94%
GP (growth percent) (SF-295): 109.94
Mean % GI [1]: 17.22%
%GI (UACC-257): 47.09%
GP (growth percent) (UACC-257): 52.91
%GI (COLO 205): −7.08%
GP (growth percent) (COLO 205): 107.08
%GI (SK-MEL-28): 7.56%
GP (growth percent) (SK-MEL-28): 92.44
Mean % GI ([2]; Renal Cancer panel): 7.23%
%GI (OVCAR-3): 8.70%
GP (growth percent) (OVCAR-3): 91.30
%GI (HL-60(TB)): 16.52%
GP (growth percent) (HL-60(TB)): 83.48
%GI (NCI/ADR-RES): 3.63%
GP (growth percent) (NCI/ADR-RES): 96.37
%GI (SK-MEL-5): 21.01%
GP (growth percent) (SK-MEL-5): 78.99
%GI (NCI-H522): 62.11%
GP (growth percent) (NCI-H522): 37.89
%GI (SNB-75): 19.22%
GP (growth percent) (SNB-75): 80.78
%GI (786–0): 5.38%
GP (growth percent) (786–0): 94.62
%GI (K-562): 40.77%
GP (growth percent) (K-562): 59.23

COc1cc(/C=C/c2cc(/C=C/c3ccc(O)c(OC)c3)n(C(=O)Nc3ccc(C(F)(F)F)cc3)n2)ccc1O [3c]
TGI (MALME-3M; 5-dose 0.01-100 µM): 8.40 µM
GI50 (MALME-3M; [3]): 2.89 µM
CC50 (MALME-3M; [4]): 32.6 µM
%GI (MALME-3M): 47.73%
GP (growth percent) (MALME-3M): 52.27
TGI (LOX IMVI; 5-dose 0.01-100 µM): 3.71 µM
GI50 (LOX IMVI; [3]): 1.77 µM
%GI (LOX IMVI): 90.89%
GP (growth percent) (LOX IMVI): 9.11
TGI (NCI-H460; 5-dose 0.01-100 µM): 9.95 µM
GI50 (NCI-H460; [3]): 3.22 µM
CC50 (NCI-H460; [4]): 50.7 µM
%GI (NCI-H460): 81.71%
GP (growth percent) (NCI-H460): 18.29
TGI (EKVX; 5-dose 0.01-100 µM): 38.4 µM
GI50 (EKVX; [3]): 3.22 µM
CC50 (EKVX; [4]): > 100 µM
%GI (EKVX): 38.75%
GP (growth percent) (EKVX): 61.25
TGI (TK-10; 5-dose 0.01-100 µM): 14.8 µM
GI50 (TK-10; [3]): 4.13 µM
CC50 (TK-10; [4]): 59.4 µM
%GI (TK-10): 22.31%
GP (growth percent) (TK-10): 77.69
TGI (HOP-92; 5-dose 0.01-100 µM): 6.79 µM
GI50 (HOP-92; Homo sapiens): 2.35 µM
CC50 (HOP-92; [4]): > 100 µM
TGI (OVCAR-8; 5-dose 0.01-100 µM): >100 µM
GI50 (OVCAR-8; [3]): 3.33 µM
CC50 (OVCAR-8; [4]): > 100 µM
%GI (OVCAR-8): 99.57%
GP (growth percent) (OVCAR-8): 0.43
TGI (SW-620; 5-dose 0.01-100 µM): 5.90 µM
GI50 (SW-620; [3]): 2.56 µM
CC50 (SW-620; [4]): 33.6 µM
%GI (SW-620): 82.00%
GP (growth percent) (SW-620): 18.00
TGI (OVCAR-4; 5-dose 0.01-100 µM): 52.7 µM
GI50 (OVCAR-4; [3]): 3.51 µM
CC50 (OVCAR-4; [4]): > 100 µM
%GI (OVCAR-4): 23.29%
GP (growth percent) (OVCAR-4): 76.71
TGI (SF-295; 5-dose 0.01-100 µM): 9.85 µM
GI50 (SF-295; [3]): 2.89 µM
CC50 (SF-295; [4]): 76.5 µM
%GI (SF-295): 16.58%
GP (growth percent) (SF-295): 83.42
Mean % GI [1]: 48.83%
Selectivity Ratio (MID a:MID b) ([1]; 5-dose assay): 0.82
GI50 ([1]; Homo sapiens, 5-dose assay, read-out: Sub Panel MID b (mean GI50 of panel)): 3.44 µM
TGI (UACC-257; 5-dose 0.01-100 µM): 14.0 µM
GI50 (UACC-257; [3]): 4.01 µM
CC50 (UACC-257; [4]): 42 µM
%GI (UACC-257): 74.99%
GP (growth percent) (UACC-257): 25.01
TGI (COLO 205; 5-dose 0.01-100 µM): 4.50 µM
GI50 (COLO 205; [3]): 2.05 µM
CC50 (COLO 205; [4]): 9.91 µM
%GI (COLO 205): 48.73%
GP (growth percent) (COLO 205): 51.27
TGI (SK-MEL-28; 5-dose 0.01-100 µM): 5.90 µM
GI50 (SK-MEL-28; [3]): 2.19 µM
CC50 (SK-MEL-28; [4]): 23.9 µM
%GI (SK-MEL-28): 42.01%
GP (growth percent) (SK-MEL-28): 57.99
pIC50 (EGFR): 5.38
GI50 ([2]; Homo sapiens, read-out: Sub Panel MID b (mean GI50 of panel)): 3.06 µM
Mean % GI ([2]; Renal Cancer panel): 46.37%
Selectivity Ratio (MID a:MID b) ([2]; Renal Cancer panel, 5-dose assay): 0.93
TGI (OVCAR-3; 5-dose 0.01-100 µM): 26.7 µM
GI50 (OVCAR-3; [3]): 3.41 µM
CC50 (OVCAR-3; [4]): > 100 µM
%GI (OVCAR-3): 86.24%
GP (growth percent) (OVCAR-3): 13.76
TGI (HL-60(TB); 5-dose 0.01-100 µM): 6.45 µM
GI50 (HL-60(TB); [3]): 1.98 µM
CC50 (HL-60(TB); [4]): > 100 µM
%GI (HL-60(TB)): 84.83%
GP (growth percent) (HL-60(TB)): 15.17
TGI (NCI/ADR-RES; 5-dose 0.01-100 µM): >100 µM
GI50 (NCI/ADR-RES; [3]): 3.51 µM
CC50 (NCI/ADR-RES; [4]): > 100 µM
%GI (NCI/ADR-RES): 48.35%
GP (growth percent) (NCI/ADR-RES): 51.65
TGI (SK-MEL-5; 5-dose 0.01-100 µM): 6.89 µM
GI50 (SK-MEL-5; [3]): 2.27 µM
CC50 (SK-MEL-5; [4]): 28 µM
%GI (SK-MEL-5): 64.60%
GP (growth percent) (SK-MEL-5): 35.40
TGI (NCI-H522; 5-dose 0.01-100 µM): 4.65 µM
GI50 (NCI-H522; [3]): 1.78 µM
CC50 (NCI-H522; [4]): 40.8 µM
%GI (NCI-H522): 92.68%
GP (growth percent) (NCI-H522): 7.32
TGI (SNB-75; 5-dose 0.01-100 µM): 66.0 µM
GI50 (SNB-75; [3]): 2.99 µM
CC50 (SNB-75; [4]): > 100 µM
%GI (SNB-75): 28.20%
GP (growth percent) (SNB-75): 71.80
TGI (786–0; 5-dose 0.01-100 µM): 7.52 µM
GI50 (786–0; [3]): 2.42 µM
CC50 (786–0; [4]): > 100 µM
%GI (786–0): 79.93%
GP (growth percent) (786–0): 20.07
TGI (K-562; 5-dose 0.01-100 µM): >100 µM
GI50 (K-562; Homo sapiens, K562, 5-dose 0.01-100 µM): 2.53 µM
CC50 (K-562; Homo sapiens, K562, 5-dose 0.01-100 µM, read-out: LC50 (the source's name)): > 100 µM
%GI (K-562): 90.55%
GP (growth percent) (K-562): 9.45
